Here are results for one compound from paper PMC12259270, “Sensory neuron–expressed FGF13 controls nociceptive signaling in diabetic neuropathy models” (The Journal of Clinical Investigation, 2025).

Entries after “also recorded” stand apart in the source; their conditions may differ. Residues, ends and D or L forms follow the SMILES beside them. *: point of attachment. Cbz = O=C(OCc1ccccc1)*; OtBu = CC(C)(C)O*

One test has as its target T1, human Nav1.6 (Homo sapiens, UniProt Q9UQD0).
T1 construct: expressed in transfected cells; host or cells: HEK293 stably expressing human Nav1.6
Put plainly: Whole-cell patch-clamp, HEK293 cells stably expressing human Nav1.6. It counts as cell-based. The procedure: Whole-cell patch clamp electrophysiology
HEK293-Nav1.7 cells, HEK293 stably expressing human Nav1.6 (HEK-Nav1.6), HEK293 stably expressing human Nav1.5 (HEK-Nav1.5), human hIPSC-derived sensory neurons (RealDRGTM from Anatomic Incorporated 1020F1-1M) and donor-derived DRG neurons were plated at low density on glass coverslips and processed for whole-cell patch clamp electrophysiology in voltage-clamp and/or current clamp mode. Whole-cell patch electrophysiological experiments were conducted following previously published studies (26). Current densities were obtained by dividing INa amplitude by membrane capacitance. Current –voltage relationships were generated by plotting current density as a function of the […]. Conductance (G Na) was calculated by the […]
where INa is the current amplitude at voltage Vm, and Erev is the Na+ reversal potential.
Activation curves were derived by plotting normalized GNa as a function of test potential and fitted using […]
Where GNa,Max is the maximum conductance, Va is the membrane potential of half-maximal activation, Em is the membrane voltage and k is the slope factor. For steady -state inactivation, normalized current amplitude (INa/INa,Max) at the test potential was plotted as a function of prepulse potential (Vm) and fitted using the […]
Where Vh is the potential of half-maximal inactivation, E m is the membrane voltage, and k is the slope factor.
Transient INa inactivation decay was estimated with the standard exponential equation. Inactivation time constant (tau, τ) was fitted with the following equation: […]
where I(t) is the amplitude of the current at time t and Iss is the steady-state current during a single voltage-step.
The goodness of fitting was determined by correlation coefficient (R), and the cutoff of R was set at 0.85. To observe effects on long-term inactivation (LTI), a four-step protocol was employed during which cells were subjected to four 0 mV, 20 ms depolarization pulses separated by −90 mV, 40 ms recovery intervals. To control for various cell sizes, the current densities were calculated by dividing INa peak current amplitude/membrane capacitance (Cm). To represent the fraction of channels entering into LTI, the peak INa observed during depolarization cycles 2-4 was normalized to the peak INa observed during depolarization cycle 1 (INa/INa,Cycle 1) and plotted as a function of the depolarization cycle.
The cumulative (frequency-dependent) use-dependency was determined by applying 20 pulses with a depolarization to −10 mV (50 ms duration) and 50 ms recovery intervals with a train of 20 pulses at 10 Hz from a holding potential at -70 mV. The current pulses were normalized to the first reco rded pulse and the currents at the 2nd to 20th pulses were compared. The same train was used to record use-dependency at various frequencies […]
The rate of recovery from inactivation was recorded at -80 mV with a standard repriming voltage protocol.
The cells were prepulsed to -20 mV for 20 ms to inactivate all currents, then driven back to the recovery potential (Vrec) for increasing recovery durations before the test pulse to 0 mV. The maximum pulse rate was 0.5 Hz. The […]
follows previous publications (16). The time constants were estimated from single exponential decay to time courses measured at recovery potentials ranging from -140 to -60 mV with the protocol as mentioned above.
Electrophysiological Recordings
HEK293 cells: Electrophysiological recordings in HEK293 stably expressing Nav1.7 (HEK-Nav1.7), Nav1.5 (HEK-Nav1.5) or Nav1.6 (HEK-Nav1.6) were performed at room temperature using a MultiClamp 700B or an Axopatch 200B amplifier (Molecular Devices) after incubating coverslips for 60 minutes either with 0.1% DMSO or 50 μM PW164 or ZL192 in the extracellular solution. The composition of recording solutions consisted of the […]
following salts: extracellular (mM): 140 NaCl, 3 KCl, 1 MgCl2, 1 CaCl2, 10 HEPES, 10 glucose, pH 7.3; […]
intracellular (mM): 130 CH3O3 SCs, 1 EGTA, 10 NaCl, 10 HEPES, pH 7.3. […]

A further test deals with C57BL/6 mice. Put plainly: Thermal hypersensitivity induced by intrathecal AAV2-FGF13-GFP (Hargreaves). It counts as in vivo, mouse. The procedure: Next, the in vivo PW164 strategy was applied to test ZL192 activity in mice that received i.t. injection (L4-L6) of either AAV2-shCTRL or AAV2-shFGF13 viral particles (10 μL; Figure 6B).
Experiments were performed on 6- to 12-week-old male C57BL/6 mice (The Jackson Laboratory, Bar Harbor, ME) housed in the AAALAC-accredited facility at the University of Texas Medical Branch. Mice were group-housed with up to 5 mice per cage on a 12-to-12-hour light–dark cycle and had access to water and food ad libitum. All protocols were approved by the Institutional Animal Care and Use Committee (IACUC) at the University of Texas Medical Branch and in accordance with the National Institutes of Health (NIH) guidelines.
PW164 and ZL192 were dissolved in DMSO and saline in a ratio of 1:10. 0.1% capsaicin (10% ethanol, 10% Tween-20 in saline; Sigma-Aldrich). All the compounds were injected at the center of the hind paw. The control group received a DMSO-saline mixture. 0.1% capsaicin was injected at the center of the hind paw and then PW164 (0.07 mg/ml) or DMSO was intradermally administered at the site of capsaicin injection Capsaicin was prepared from 1% (wt/vol) capsaicin stock solution dissolved in 100% ethanol, and 0.1% of diluted stock was made using tween-80 and saline solution at a 1:1:8 ratio. Bupivacaine was prepared from a 1:2 dilution with sterile 0.9% saline and locally injected in the center of the paw at 7 mg/ml.
AAV2 viral particles packaged by the University of North Carolina Gene Therapy Core Facility (viral titer ranging […]
Before intrathecal injections in the lumbar region, mice were maintained in an anesthetizing box with 2% isoflurane to induce unconsciousness. […]
Mechanical sensitivity was assessed using von Frey filaments (VFF 0.1g and 1.0 g force) in mice that were either naïve or received intraplantar ([…].) injection of capsaicin. […]

Where [1] appears, read: HEK293 Nav1.6, FGF13-1a-GFP + PW164.

T1 sequence (Q9UQD0 whole entry): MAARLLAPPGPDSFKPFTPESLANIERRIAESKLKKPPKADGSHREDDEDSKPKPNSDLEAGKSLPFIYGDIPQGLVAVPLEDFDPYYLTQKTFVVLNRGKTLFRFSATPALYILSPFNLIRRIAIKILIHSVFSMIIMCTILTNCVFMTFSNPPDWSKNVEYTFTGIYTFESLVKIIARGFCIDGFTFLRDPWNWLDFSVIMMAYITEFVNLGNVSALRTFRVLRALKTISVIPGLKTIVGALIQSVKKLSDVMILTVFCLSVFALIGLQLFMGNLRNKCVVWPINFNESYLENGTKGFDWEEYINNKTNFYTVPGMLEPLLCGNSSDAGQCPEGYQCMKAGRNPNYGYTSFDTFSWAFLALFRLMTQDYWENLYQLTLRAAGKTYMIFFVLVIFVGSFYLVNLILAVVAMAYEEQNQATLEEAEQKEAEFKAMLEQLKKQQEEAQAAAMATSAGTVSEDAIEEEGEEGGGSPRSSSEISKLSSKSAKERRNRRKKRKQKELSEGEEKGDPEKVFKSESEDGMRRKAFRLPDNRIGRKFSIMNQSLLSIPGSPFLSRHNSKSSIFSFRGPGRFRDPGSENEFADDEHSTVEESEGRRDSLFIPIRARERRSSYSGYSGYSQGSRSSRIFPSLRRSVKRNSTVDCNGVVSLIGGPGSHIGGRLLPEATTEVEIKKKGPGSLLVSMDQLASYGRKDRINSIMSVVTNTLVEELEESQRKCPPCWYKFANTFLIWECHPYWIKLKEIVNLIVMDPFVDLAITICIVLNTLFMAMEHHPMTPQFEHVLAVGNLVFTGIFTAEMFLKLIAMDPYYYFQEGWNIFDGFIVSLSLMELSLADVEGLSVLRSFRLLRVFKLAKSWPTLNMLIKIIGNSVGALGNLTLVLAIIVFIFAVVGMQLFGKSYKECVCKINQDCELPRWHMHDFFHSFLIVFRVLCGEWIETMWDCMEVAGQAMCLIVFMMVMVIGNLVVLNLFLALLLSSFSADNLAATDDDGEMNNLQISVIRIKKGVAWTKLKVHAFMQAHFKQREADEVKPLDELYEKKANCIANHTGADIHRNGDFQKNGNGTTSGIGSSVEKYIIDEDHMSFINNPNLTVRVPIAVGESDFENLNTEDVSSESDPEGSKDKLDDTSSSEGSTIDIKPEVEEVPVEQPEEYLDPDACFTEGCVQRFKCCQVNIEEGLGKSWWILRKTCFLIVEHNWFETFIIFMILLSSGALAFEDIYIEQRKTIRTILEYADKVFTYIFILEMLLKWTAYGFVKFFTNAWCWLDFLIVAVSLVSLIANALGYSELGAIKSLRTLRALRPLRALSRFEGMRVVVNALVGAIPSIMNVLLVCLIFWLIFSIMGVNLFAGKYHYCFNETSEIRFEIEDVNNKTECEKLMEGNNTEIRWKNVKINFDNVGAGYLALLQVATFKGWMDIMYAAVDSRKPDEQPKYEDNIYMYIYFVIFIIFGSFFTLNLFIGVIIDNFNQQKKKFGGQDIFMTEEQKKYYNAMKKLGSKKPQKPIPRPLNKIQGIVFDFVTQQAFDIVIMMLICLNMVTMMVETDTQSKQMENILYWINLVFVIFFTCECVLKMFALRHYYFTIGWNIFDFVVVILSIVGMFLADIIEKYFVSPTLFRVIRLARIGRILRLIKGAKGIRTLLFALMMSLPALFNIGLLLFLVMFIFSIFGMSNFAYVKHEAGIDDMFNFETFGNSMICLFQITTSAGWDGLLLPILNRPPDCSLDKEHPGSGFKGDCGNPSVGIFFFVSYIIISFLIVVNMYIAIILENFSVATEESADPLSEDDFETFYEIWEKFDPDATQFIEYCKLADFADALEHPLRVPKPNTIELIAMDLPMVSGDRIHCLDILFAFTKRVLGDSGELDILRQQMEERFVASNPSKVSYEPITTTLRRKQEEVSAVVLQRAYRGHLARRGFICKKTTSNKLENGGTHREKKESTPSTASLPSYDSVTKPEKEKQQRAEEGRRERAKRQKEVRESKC

Turning to `COC(=O)[C@@H](NC(=O)[C@H](CCC(=O)OC(C)(C)C)NC(=O)[C@H](CC(C)C)NC(=O)[C@@H]1CCCN1C(=O)OCc1ccccc1)C(C)C` [PW164] (Cbz-PLE(OtBu)V-OMe), at human Nav1.6 (setting [1]), the Activation was −29.2 ± 1.2 mV; the “Long-term inactivation, 2nd Pulse” value is reported as −67.4 ± 4.1 % maximal Na+ current; the “Long-term inactivation, 3rd Pulse” value is −59.7 ± 4.1 % maximal Na+ current; the “Long-term inactivation, 4th Pulse” value is −54.2 ± 4.9 % maximal Na+ current. Further, on human Nav1.6 (setting [1]), the Peak Density is on record as −102.7 ± 8.8 pA/pF, the Steady state inactivation was −50.8 ± 2.1 mV and the “Tau (τ)” value is reported as 1.46 ± 0.04 ms. Moreover, the “activity on Nav1.6-mediated currents” value at human Nav1.6 (HEK293 stably expressing Nav1.6 alone or coexpressing FGF13) was “does not modulate; also recorded: inactive”. Moreover, in the test on C57BL/6 mice (PW164 5 μL, 0.7 mg/mL), the “duration of rescue in AAV2-FGF13-GFP mice” value is given as “up to 2.5 hours”. In the test on C57BL/6 mice (bupivacaine 7 mg/mL (5 μL), Suppl Fig 15B), the “thermal hypersensitivity in AAV2-FGF13-GFP mice” value is “Complete recovery”. Besides, the “thermal hypersensitivity in AAV2-FGF13-GFP mice” value with C57BL/6 mice (day 68, PW164 5 μL, 0.7 mg/mL) is “partial rescue”.
